Test results taken from patent EP1247803A2, “Indolinone compounds suitable for modulation of protein kinases” (Sugen, Inc., priority 1996, dated 1998).

Key:
MET = MET biochemical kinase assay; set-up: species or system human; concentration or dose not given beside the values
How it was run: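 Colorimetric signal from an HRP-linked anti-phosphotyrosine antibody with TMB measures phosphate incorporated into immobilised MET. The receptor is pulled from lysates by a polyclonal antibody against its cytoplasmic domain, then reacts in ATP- and metal-containing buffer with test compound.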

FLK-1 receptor = biological target: T1, FLK-1 receptor (Mus musculus, UniProt P35918); experiment: FLK-1 ELISA (kinase activity of the FLK-1 receptor in FLK-1/NIH3T3 cells, VEGF stimulated); format: cell-based
T1 construct: expressed in transfected cells; host or cells: NIH3T3 C7#3
T1 sequence (P35918 20-1345): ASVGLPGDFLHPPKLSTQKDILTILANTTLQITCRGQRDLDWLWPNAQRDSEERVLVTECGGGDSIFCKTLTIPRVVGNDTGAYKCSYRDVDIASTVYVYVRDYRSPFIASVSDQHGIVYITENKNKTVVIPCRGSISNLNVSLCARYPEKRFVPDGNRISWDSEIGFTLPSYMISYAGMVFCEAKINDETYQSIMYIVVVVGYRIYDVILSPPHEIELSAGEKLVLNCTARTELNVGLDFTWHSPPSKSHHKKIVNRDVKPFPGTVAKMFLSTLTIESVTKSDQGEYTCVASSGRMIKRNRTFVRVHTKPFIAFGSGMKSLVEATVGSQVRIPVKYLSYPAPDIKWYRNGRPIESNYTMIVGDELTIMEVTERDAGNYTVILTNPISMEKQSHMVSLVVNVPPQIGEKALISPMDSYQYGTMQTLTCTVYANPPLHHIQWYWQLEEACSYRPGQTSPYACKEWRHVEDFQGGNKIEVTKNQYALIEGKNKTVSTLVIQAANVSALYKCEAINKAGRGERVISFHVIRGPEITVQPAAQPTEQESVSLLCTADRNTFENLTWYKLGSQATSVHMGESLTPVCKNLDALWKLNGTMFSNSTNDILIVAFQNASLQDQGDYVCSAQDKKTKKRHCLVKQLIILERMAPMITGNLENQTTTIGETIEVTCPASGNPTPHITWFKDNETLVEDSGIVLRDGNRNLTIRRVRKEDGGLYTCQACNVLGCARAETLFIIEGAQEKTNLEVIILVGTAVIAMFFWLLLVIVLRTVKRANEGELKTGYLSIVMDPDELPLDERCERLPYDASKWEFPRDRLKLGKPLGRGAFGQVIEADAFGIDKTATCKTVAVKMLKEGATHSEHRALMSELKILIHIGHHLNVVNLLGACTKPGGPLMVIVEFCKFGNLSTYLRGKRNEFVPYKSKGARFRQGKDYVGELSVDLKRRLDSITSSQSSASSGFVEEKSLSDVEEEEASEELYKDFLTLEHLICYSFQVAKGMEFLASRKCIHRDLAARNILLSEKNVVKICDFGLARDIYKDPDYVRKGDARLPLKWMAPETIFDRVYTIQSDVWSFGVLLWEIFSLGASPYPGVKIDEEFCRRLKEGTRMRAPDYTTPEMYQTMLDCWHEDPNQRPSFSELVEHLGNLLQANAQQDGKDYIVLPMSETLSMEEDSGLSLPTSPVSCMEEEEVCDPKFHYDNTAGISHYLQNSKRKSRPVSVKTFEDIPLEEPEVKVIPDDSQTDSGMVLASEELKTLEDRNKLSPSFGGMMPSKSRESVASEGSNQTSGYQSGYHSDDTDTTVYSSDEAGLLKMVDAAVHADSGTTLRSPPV
How it was run: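 An ELISA using affinity-purified rabbit anti-FLK-1 antiserum on anti-rabbit IgG-coated plates measured VEGF-stimulated FLK-1 kinase activity. NIH3T3 C7#3 cells carrying FLK-1 were serum-starved (0.1% FBS) overnight, then exposed to compound (final 1:200 dilution, 0.5% DMSO) for two hours at 37 °C.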

PDGF-R = PDGF-R (Homo sapiens, UniProt P09619); experiment: PDGF-R ELISA; format: cell-based
Chain of PDGF-R (P09619 33-1106, species assumed): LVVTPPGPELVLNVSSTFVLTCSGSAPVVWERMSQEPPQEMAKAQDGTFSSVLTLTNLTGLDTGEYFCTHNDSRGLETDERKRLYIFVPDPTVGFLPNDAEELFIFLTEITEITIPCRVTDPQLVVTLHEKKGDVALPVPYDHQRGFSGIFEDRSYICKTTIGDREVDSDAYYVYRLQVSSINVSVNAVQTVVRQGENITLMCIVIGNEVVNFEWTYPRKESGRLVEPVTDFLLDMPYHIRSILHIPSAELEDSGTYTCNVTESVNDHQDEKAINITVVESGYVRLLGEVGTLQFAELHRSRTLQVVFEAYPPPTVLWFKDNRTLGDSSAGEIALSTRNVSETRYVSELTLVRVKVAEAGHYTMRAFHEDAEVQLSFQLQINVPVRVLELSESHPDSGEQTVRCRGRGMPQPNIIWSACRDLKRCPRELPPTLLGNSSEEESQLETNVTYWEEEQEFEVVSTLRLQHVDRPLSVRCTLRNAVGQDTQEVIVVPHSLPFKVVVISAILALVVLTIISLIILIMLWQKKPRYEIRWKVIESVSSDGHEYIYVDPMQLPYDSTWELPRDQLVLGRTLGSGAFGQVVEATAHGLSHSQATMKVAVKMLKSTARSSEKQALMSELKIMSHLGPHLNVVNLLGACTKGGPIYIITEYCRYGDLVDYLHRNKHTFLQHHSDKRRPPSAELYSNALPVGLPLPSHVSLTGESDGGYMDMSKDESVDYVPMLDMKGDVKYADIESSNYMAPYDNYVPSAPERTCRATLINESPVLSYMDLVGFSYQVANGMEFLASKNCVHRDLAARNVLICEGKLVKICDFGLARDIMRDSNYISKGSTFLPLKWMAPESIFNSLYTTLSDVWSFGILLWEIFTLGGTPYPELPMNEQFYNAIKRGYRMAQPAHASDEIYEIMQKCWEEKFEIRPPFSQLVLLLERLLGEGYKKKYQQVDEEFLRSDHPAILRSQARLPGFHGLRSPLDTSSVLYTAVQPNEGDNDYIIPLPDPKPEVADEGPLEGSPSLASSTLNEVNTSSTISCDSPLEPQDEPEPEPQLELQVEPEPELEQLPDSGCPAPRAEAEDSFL
From the text: A PDGF-R ELISA is described in International Patent Publication No. WO 96/40116, published December 19, 1996 by Tang et al.

Structure (SMILES)	Met Kinase % Inhibition (MET)	Fik Kinase %Inhibition (FLK-1 receptor)	PDGF Kinase %Inhibition (PDGF-R)
O=C1Nc2c(Br)cc(Br)cc2C1=Cc1ccc(O)c(Br)c1 [10734/A09]	88.4%	-7.9%	-9.5%
CC(C)(C)c1ccc(C=C2C(=O)Nc3c(Br)cc(Br)cc32)cc1 [10734/A10]	55.4%	4.4%	26.3%
O=C1Nc2c(Br)cc(Br)cc2C1=Cc1ccc(Br)s1 [10734/A11]	51.9%	6.3%	5.5%
CCOc1cccc(C=C2C(=O)Nc3ccc(I)cc32)c1O [10734/B02]	61.9%	8.5%	-2.9%
O=C1Nc2ccc(I)cc2C1=Cc1cc(Cl)cc(Cl)c1O [10734/B03]	90.1%	21.7%	13.0%
O=C1Nc2ccc(I)cc2C1=Cc1cc(Cl)ccc1O [10734/B04]	88.4%	2.8%	14.4%
CCN(CC)c1ccc(C=C2C(=O)Nc3ccc(I)cc32)c(O)c1 [10734/B05]	67.8%	-2.3%	56.3%
O=C1Nc2ccc(I)cc2C1=Cc1ccc([N+](=O)[O-])cc1 [10734/B06]	91.2%	-0.9%	0.2%
O=C1Nc2ccc(I)cc2C1=Cc1cc(Br)cc(Br)c1O [10734/B07]	93.2%	9.1%	18.8%
O=C1Nc2ccc(I)cc2C1=Cc1cccc(F)c1O [10734/B08]	56.1%	-0.5%	-2.4%
O=C1Nc2ccc(I)cc2C1=Cc1ccc(O)c(Br)c1 [10734/B09]	94.3%	-32.3%	12.6%
CC(C)(C)c1ccc(C=C2C(=O)Nc3ccc(I)cc32)cc1 [10734/B10]	82.6%	15.7%	7.7%
O=C1Nc2ccc(I)cc2C1=Cc1ccc(Br)s1 [10734/B11]	83.6%	12.6%	-5.5%
CCOc1cccc(C=C2C(=O)Nc3ccc(Br)c(C)c32)c1O [10734/C02]	78.6%	-3.9%	36.0%
Cc1c(Br)ccc2c1C(=Cc1cc(Cl)cc(Cl)c1O)C(=O)N2 [10734/C03]	88.2%	-5.6%	24.5%
Cc1c(Br)ccc2c1C(=Cc1cc(Cl)ccc1O)C(=O)N2 [10734/C04]	90.7%	-37.6%	24.5%
CCN(CC)c1ccc(C=C2C(=O)Nc3ccc(Br)c(C)c32)c(O)c1 [10734/C05]	52.7%	-10.3%	3.8%
Cc1c(Br)ccc2c1C(=Cc1ccc([N+](=O)[O-])cc1)C(=O)N2 [10734/C06]	48.3%	-1.7%	-0.2%

Structure (SMILES)	Met Kinase % Inhibition (MET)	Fik Kinase %Inhibition (FLK-1 receptor)	PDGF Kinase %Inhibition (PDGF-R)
Cc1c(Br)ccc2c1C(=Cc1cc(Br)cc(Br)c1O)C(=O)N2 [10734/C07]	96.8%	-2.7%	32.0%
Cc1c(Br)ccc2c1C(=Cc1cccc(F)c1O)C(=O)N2 [10734/C08]	93.2%	-34.2%	5.5%
Cc1c(Br)ccc2c1C(=Cc1ccc(O)c(Br)c1)C(=O)N2 [10734/C09]	88.6%	-13.3%	11.3%
Cc1c(Br)ccc2c1C(=Cc1ccc(C(C)(C)C)cc1)C(=O)N2 [10734/C10]	11.6%	10.1%	17.4%
Cc1c(Br)ccc2c1C(=Cc1ccc(Br)s1)C(=O)N2 [10734/C11]	23.9%	6.3%	9.1%
CCOc1cccc(C=C2C(=O)Nc3ccc(S(=O)(=O)NC)cc32)c1O [10734/D02]	46.0%	-11.5%	6.4%
CNS(=O)(=O)c1ccc2c(c1)C(=Cc1cc(Cl)cc(Cl)c1O)C(=O)N2 [10734/D03]	78.6%	17.4%	24.1%
CNS(=O)(=O)c1ccc2c(c1)C(=Cc1cc(Cl)ccc1O)C(=O)N2 [10734/D04]	46.9%	6.1%	13.5%
CCN(CC)c1ccc(C=C2C(=O)Nc3ccc(S(=O)(=O)NC)cc32)c(O)c1 [10734/D05]	55.0%	2.4%	8.2%
CNS(=O)(=O)c1ccc2c(c1)C(=Cc1ccc([N+](=O)[O-])cc1)C(=O)N2 [10734/D06]	30.6%	0.0%	-9.1%
CNS(=O)(=O)c1ccc2c(c1)C(=Cc1cc(Br)cc(Br)c1O)C(=O)N2 [10734/D07]	92.0%	14.7%	28.1%
CNS(=O)(=O)c1ccc2c(c1)C(=Cc1cccc(F)c1O)C(=O)N2 [10734/D08]	49.8%	2.5%	2.0%
CNS(=O)(=O)c1ccc2c(c1)C(=Cc1ccc(O)c(Br)c1)C(=O)N2 [10734/D09]	88.0%	-11.6%	42.2%
CNS(=O)(=O)c1ccc2c(c1)C(=Cc1ccc(C(C)(C)C)cc1)C(=O)N2 [10734/D10]	20.6%	11.1%	9.9%
CNS(=O)(=O)c1ccc2c(c1)C(=Cc1ccc(Br)s1)C(=O)N2 [10734/D11]	33.9%	9.8%	17.0%
CCOc1cccc(C=C2C(=O)Nc3ccc(S(=O)(=O)Nc4ccc(C(F)(F)F)cc4)cc32)c1O [10734/E02]	66.9%	7.9%	50.1%
O=C1Nc2ccc(S(=O)(=O)Nc3ccc(C(F)(F)F)cc3)cc2C1=Cc1cc(Cl)cc(Cl)c1O [10734/E03]	99.3%	26.9%	27.2%
